According to ChEMBL document CHEMBL1121750, “Adenosine deaminase inhibitors. Conversion of a single chiral synthon into erythro- and threo-9-(2-hydroxy-3-nonyl)adenines” (J Med Chem, 1981):

The compounds below were run against T1, Adenosine deaminase (Homo sapiens, UniProt P00813) (assay: Compound was evaluated for the inhibition of adenosine deaminase).
T1 sequence (P00813 whole entry): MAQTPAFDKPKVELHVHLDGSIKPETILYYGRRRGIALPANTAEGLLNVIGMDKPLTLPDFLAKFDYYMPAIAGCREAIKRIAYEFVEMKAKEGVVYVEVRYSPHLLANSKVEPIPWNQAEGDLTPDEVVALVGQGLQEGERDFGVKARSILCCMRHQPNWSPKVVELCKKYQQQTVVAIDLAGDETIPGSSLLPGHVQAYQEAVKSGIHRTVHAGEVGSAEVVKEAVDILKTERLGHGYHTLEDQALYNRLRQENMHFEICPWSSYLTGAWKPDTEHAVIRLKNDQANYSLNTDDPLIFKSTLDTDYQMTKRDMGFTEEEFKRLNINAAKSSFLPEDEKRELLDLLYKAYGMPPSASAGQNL
CCCCCC[C@@H]([C@H](C)O)n1cnc2c(N)ncnc21 gave a Ki of 80 nM.
CCCCCC[C@H]([C@@H](C)O)n1cnc2c(N)ncnc21 was tested, and the Ki was 122 nM.
With CCCCCC[C@@H]([C@@H](C)O)n1cnc2c(N)ncnc21 (stereo in doubt; (-)) [EHNA] the Ki was 500 nM.
CCCCCC[C@@H]([C@@H](C)O)n1cnc2c(N)ncnc21 (stereo in doubt; erythro) [EHNA] showed a Ki of 0.4 nM.
For CCCCCC[C@H]([C@H](C)O)n1cnc2c(N)ncnc21 [(+)-EHNA], the Ki was 2 nM.
In the case of OC[C@H]1O[C@@H](n2cnc3c2N=CNC[C@H]3O)[C@H](O)[C@@H]1O [COFORMYCIN], the Ki is reported as 0.1 nM.
